Measurements from patent US10214533B2, “N-acyl-(3-substituted)-5,6,7,8-tetrahydro-[1,2,4]triazolo[4,3-a]pyrazines as selective NK-3 receptor antagonists, pharmaceutical composition, methods for use in NK-3 receptor-mediated disorders” (OGEDA SA, priority 2013, dated 2019).

system: circulating LH levels; experiment: Castrated male rat model, circulating luteinizing hormone (LH) levels, oral dosing; format: in vivo; conditions: castrated male SD rat, single oral dose less than or equal to 30 mg/kg, p<0.05
Experimental: The effect of compounds of the invention to inhibit luteinizing hormone (LH) secretion is determined by the following biological studies. In humans and rodents, castration is well-precedented to permit heightened, persistent GnRH signaling and consequent elevation of circulating LH. Thus, a castrated rat model is used to provide a broad index for measurement of LH inhibition as a marker of test compound inhibition of the GnRH signaling pathway. Castrated adult male Sprague-Dawley (SD) rats (150-175 g) were purchased from Janvier (St Berthevin, France). All animals were housed 2 per cage in a temperature-controlled room (22±2° C.) and 50±5% relative humidity with a 12 hour/12 hour light/dark cycles (lights off at 6 h00 pm). The animals were allowed 3 weeks of postoperative recovery prior to study. Animals were handled on a daily basis. Standard diet and tap water were provided ad libitum. Animal cage litters were changed once a week. On the study day, animals were acclimated to the procedure room for a period of one hour prior to the initiation of the experiment. Compounds of the invention were formulated in 0.5% methyl cellulose. After basal sampling (TO) a single dose of compounds of the invention or vehicle was administrated orally to rats. […] Serum LH levels were determined using radioimmunoassay kit from RIAZEN—Rat LH, Zentech (Liège, Belgium). […]

Row | SMILES | Suppression of circulating LH levels
1 | Cc1nsc(-c2nnc3n2CCN(C(=O)c2ccc(F)cc2)C3)n1 [Compound 1, (4-fluorophenyl)(3-(3-methyl-1,2,4-thiadiazol-5-yl)-5,6-dihydro-[1,2,4]triazolo[4,3-a]pyrazin-7(8H)-yl)methanone] | significantly suppressed circulating LH levels

system: plasma protein; experiment: Determination of plasma protein binding (rapid equilibrium dialysis); format: in vitro ADME; conditions: 4 hours at 37° C.
Experimental: The determination of plasma protein binding (PPB) of a compound is enabled by equilibrium dialysis, an accepted and standard method for reliable estimation of the non-bound drug fraction in plasma. RED (Rapid Equilibrium Dialysis) device insert is made of two side-by-side chambers separated by an O-ring-sealed vertical cylinder of dialysis membrane (MWCO ˜8,000). […] After 4 hours incubation at 37° C. under shaking, an aliquot is removed from each chamber and analyzed by a LC-MS/MS procedure enables the determination of both free and bound drug.
The “free fraction” may be calculated as 100%−% rPPB (i.e. the complementary percentage of that disclosed in Table 4, corresponding to the drug concentration that is unbound and therefore available to engage biological target and elicit pharmacological activity).

Row | SMILES | Exposure (% rPPB), bound drug fraction to the plasma protein [%]
2 | Cc1nsc(-c2nnc3n2CCN(C(=O)c2ccc(Cl)c(F)c2)C3)n1 [Compound 3, (4-chloro-3-fluorophenyl)(3-(3-methyl-1,2,4-thiadiazol-5-yl)-5,6-dihydro-[1,2,4]triazolo[4,3-a]pyrazin-7(8H)-yl)methanone] | 54
3 | Cc1nsc(-c2nnc3n2CCN(C(=O)c2ccc(F)c(F)c2)C3)n1 [Compound 5, (3,4-difluorophenyl)(3-(3-methyl-1,2,4-thiadiazol-5-yl)-5,6-dihydro-[1,2,4]triazolo[4,3-a]pyrazin-7(8H)-yl)methanone] | 28

The remaining lines, values ahead:

Row | Exposure (% rPPB), bound drug fraction to the plasma protein [%] | SMILES
4 | 49 | Cc1nsc(-c2nnc3n2CCN(C(=O)c2ccc(Cl)cc2)C3)n1 [Compound 2, (4-chlorophenyl)(3-(3-methyl-1,2,4-thiadiazol-5-yl)-5,6-dihydro-[1,2,4]triazolo[4,3-a]pyrazin-7(8H)-yl)methanone]
5 | 52 | Cc1nsc(-c2nnc3n2CCN(C(=O)c2ccc(F)c(Cl)c2)C3)n1 [Compound 4, (3-chloro-4-fluorophenyl)(3-(3-methyl-1,2,4-thiadiazol-5-yl)-5,6-dihydro-[1,2,4]triazolo[4,3-a]pyrazin-7(8H)-yl)methanone]
6 | 27 | Cc1nsc(-c2nnc3n2CCN(C(=O)c2cc(F)c(F)c(F)c2)C3)n1 [Compound 6, (3-(3-methyl-1,2,4-thiadiazol-5-yl)-5,6-dihydro-[1,2,4]triazolo[4,3-a]pyrazin-7(8H)-yl)(3,4,5-trifluorophenyl)methanone]
7 | 25 | Cc1nsc(-c2nnc3n2CCN(C(=O)c2ccc(F)c(F)c2F)C3)n1 [Compound 7, (3-(3-methyl-1,2,4-thiadiazol-5-yl)-5,6-dihydro-[1,2,4]triazolo[4,3-a]pyrazin-7(8H)-yl)(2,3,4-trifluorophenyl)methanone]
